Like-named read-outs stand apart in the source and are kept apart here.
Tests used:
[1] = system: A-172 (human glioma cancer); test: Cell culture cytotoxicity screening (Alamar Blue), A-172; assay type: cell-based
Description: (§1) FIG. 8. Cytotoxicity of pantaphos across various cancer cell lines. Assays were conducted as described (mBio. 2021 Feb. 2; 12(1):e03402-20), using the Alamar Blue method with 72-hour treatment using Raptinal ([…]) as Dead cell control; n=3. Cell seeding densities: CT26 (colon carcinoma) 2000 c/w; HOS (osteosarcoma) 2500 c/w; ES-2 (ovarian carcinoma), HCT-116 (colorectal carcinoma), A-549 (lung carcinoma), A-172 (glioblastoma), D54 (glioblastoma), U87 (glioblastoma), T98G (glioblastoma), SK-ML-28 (melanoma), MCF-7 (breast cancer), AM38 (glioblastoma) and MDA-MB-231 (breast cancer) 3000 c/w; U118MG (malignant glioma) 4000 c/w; HepG2 (liver cancer) 8000 c/w. c/w=cells per well. IC50 and Emax values shown in Table 6 were extracted from the raw data plotted in FIG. 8.
(§2) Cell culture cytotoxicity screening. The compounds were evaluated for their ability to kill cancer cell lines in culture, using HOS (osteosarcoma); ES-2 (ovarian cancer); HCT 116 (colon cancer); A549 (lung carcinoma); and A172 (glioma) cells. Human skin fibroblast cells (HFF-1) were also assessed. Cells were seeded (3000 cells well^−1 for ES-2, HCT 116, A549 and A172; 4000 cells well^−1 for HFF-1 and 2500 cells well^−1 for HOS) in a 96-well plate and allowed to attach overnight. Cells were treated with pantaphos in water. The concentrations of the tested compounds were 5 nM to 100 μM (1% water final; 100 μl well^−1). Raptinal (50 μM) was used as a dead control. On each plate, five technical replicates per compound were performed. 72 hours post-treatment, cell viability was assessed using the Alamar Blue method (http://www.bio-rad-antibodies.com/measuring-cytotoxicity-proliferation-spectrophotometry-fluorescence-alamarBlue.html). Alamar Blue solution (10 μl of 440 μM resazurin in sterile 1×PBS) was added to each well, and the plate was incubated for 3-4 hrs. Conversion of Alamar Blue was measured with a plate reader (SpectraMax M3; Molecular Devices) by fluorescence (excitation wavelength: 555 nm; emission wavelength: 585 nm; cutoff 570 nm; autogain). Percentage death was determined by normalizing to water-treated cells and Raptinal-treated cells. For IC50 determination, the data were plotted as compound concentration versus dead cell percentage and fitted to a logistic-dose-response curve using OriginPro 2019 (OriginLab). The data were generated in triplicate, and IC50 values are reported as the average of three separate experiments along with SEM values.

[2] = system: HCT-116 (human colon cancer); test: Cell culture cytotoxicity screening (Alamar Blue), HCT-116; assay type: cell-based; conditions: HCT-116, Alamar Blue, 72 hours
Description: as §1, with “IC50 and Emax values shown in Table 6 were extracted from the raw data plotted in FIG. 8.” left out
(§3) Cell culture cytotoxicity screening. The compounds were evaluated for their ability to kill cancer cell lines in culture, using HOS (osteosarcoma); ES-2 (ovarian cancer); HCT 116 (colon cancer); A549 (lung carcinoma); and A172 (glioma) cells. Human skin fibroblast cells (HFF-1) were also assessed. […] 72 hours post-treatment, cell viability was assessed using the Alamar Blue method (http://www.bio-rad-antibodies.com/measuring-cytotoxicity-proliferation-spectrophotometry-fluorescence-alamarBlue.html). […] Conversion of Alamar Blue was measured with a plate reader (SpectraMax M3; Molecular Devices) by fluorescence (excitation wavelength: 555 nm; emission wavelength: 585 nm; cutoff 570 nm; autogain). […]

[3] = system: MDA-MB-231 (breast cancer); test: Cytotoxicity profiling (Alamar Blue), MDA-MB-231; assay type: cell-based, human
Description: as §1
as §2, with “Alamar Blue solution (10 μl of 440 μM resazurin in sterile 1×PBS) was added to each well, and the plate was incubated for 3-4 hrs.” left out, “For IC50 determination, the data were plotted as compound concentration versus dead cell percentage and fitted to a logistic-dose-response curve using OriginPro 2019 (OriginLab). The data were generated in triplicate, and IC50 values are reported as the average of three separate experiments along with SEM values.” left out

[4] = system: HFF-1 (human fibroblast cells); test: Cell culture cytotoxicity screening (Alamar Blue), HFF-1; assay type: cell-based; conditions: HFF-1, Alamar Blue, 72 hours
Description: as §2, with “For IC50 determination, the data were plotted as compound concentration versus dead cell percentage and fitted to a logistic-dose-response curve using OriginPro 2019 (OriginLab). The data were generated in triplicate, and IC50 values are reported as the average of three separate experiments along with SEM values.” left out

[5] = system: Klebsiella pneumoniae ATCC 27736; test: Antibacterial bioassay (MIC), Klebsiella pneumoniae; assay type: cell-based; conditions: CLSI
Description: Antibacterial bioassays. Susceptibility testing for the ESKAPE pathogens and Salmonella enterica LT2 was performed using a Kirby-Bauer method as outlined by the Clinical and Laboratory Standards Institute (CLSI). For rich media bioassays, Mueller Hinton Broth 2 (MH-2, Sigma-Aldrich, 90922) was used for all strains except 1% BHI was supplemented for Enterococcus faecalis ATCC 19433. For minimal media bioassays, glucose-MOPS minimal medium was used. Briefly, overnight bacterial cultures were sub-cultured and inoculated into 5 mL top agar (0.7% agar) for final concentration of 5×10^5 CFU/mL. Then, 20 μL of a compound 2-fold dilution series (200, 100, 50, 25, 12.5, 6.25 μM in water) was spotted on 6 mm diameter blank paper discs (BD BBL™ 231039). Control discs received 20 μL of 50 mg/mL kanamycin. Plates were incubated at 35° C. for 20-24 hours. […] Sensitivity of the IPTG-inducible phosphonate uptake strain WM6242 to pantaphos was tested using a disk diffusion assay. Plates containing growth medium were overlayed with 5 mL of top agar (0.7% agar) inoculated with 100 μL (OD600=0.8) of the phosphonate-specific E. coli indicator strain (WM6242) with or without addition of 1 mM IPTG. WM6242 is engineered with an IPTG-inducible, non-specific phosphonate uptake system (phnCDE). […]

[6] = system: HOS (human osteosarcoma); test: Cell culture cytotoxicity screening (Alamar Blue), HOS; assay type: cell-based; conditions: 72 hours
Description: as §1, with “IC50 and Emax values shown in Table 6 were extracted from the raw data plotted in FIG. 8.” left out
as §3

[7] = system: CT26 (colon carcinoma); test: Cytotoxicity profiling (Alamar Blue), CT26; assay type: cell-based
Description: as §1
as §2, with “Alamar Blue solution (10 μl of 440 μM resazurin in sterile 1×PBS) was added to each well, and the plate was incubated for 3-4 hrs.” left out, “For IC50 determination, the data were plotted as compound concentration versus dead cell percentage and fitted to a logistic-dose-response curve using OriginPro 2019 (OriginLab). The data were generated in triplicate, and IC50 values are reported as the average of three separate experiments along with SEM values.” left out

[8] = system: ES-2 (human ovarian cancer); test: Cell culture cytotoxicity screening (Alamar Blue), ES-2; assay type: cell-based; conditions: for IC50: ES-2, Alamar Blue
Description: as §1
as §2, with “Alamar Blue solution (10 μl of 440 μM resazurin in sterile 1×PBS) was added to each well, and the plate was incubated for 3-4 hrs.” left out, “For IC50 determination, the data were plotted as compound concentration versus dead cell percentage and fitted to a logistic-dose-response curve using OriginPro 2019 (OriginLab). The data were generated in triplicate, and IC50 values are reported as the average of three separate experiments along with SEM values.” left out

[9] = system: U118MG (malignant glioma); test: Cytotoxicity profiling (Alamar Blue), U118MG; assay type: cell-based; conditions: Homo sapiens, U-118-MG, 72-hour treatment
Description: as §1, with “IC50 and Emax values shown in Table 6 were extracted from the raw data plotted in FIG. 8.” left out
as §3

[10] = read-out: Emax = percentage cell death (converted)

Q: For `O=C(O)/C=C(\C(=O)O)C(O)P(=O)(O)O` (stereo not shown) [pantaphos, 2-(hydroxy(phosphono)methyl)maleate], which IC50 ([1]; A 172, 72 h, A-172, Alamar Blue, 72-hour treatment (Table 6)) is on record?
A: 1.01 ± 0.06 µM

Q: What about the IC50 ([1]; A 172, 72 h, A-172, Alamar Blue, 72 hours) of the same compound?
A: 1 µM

Q: What about the IC50 ([1]; A 172, A-172 (text of Example 5)) of the same compound?
A: 1 µM

Q: And the Emax ([1]; A-172, Alamar Blue, 72 hours, read-out: Emax = percentage cell death (converted))?
A: 99%

Q: And the IC50 [2]?
A: 10.4 ± 2 µM

Q: And the Emax [2, 10]?
A: 59%

Q: What about the Emax ([3]; Homo sapiens, MDA-MB-231, Alamar Blue, 72-hour treatment) of the same compound?
A: 91%

Q: What about the IC50 ([3]; Homo sapiens, MDA-MB-231, Alamar Blue, 72-hour treatment (Table 6)) of the same compound?
A: 2.68 ± 0.23 µM

Q: What about the “sensitivity of the cell line to the compound, in words” value ([3]; MDA-MB-231) of the same compound?
A: sensitive

Q: And the IC50 [4]?
A: 6.69 ± 0.29 µM

Q: What about the Emax [4, 10] of the same compound?
A: 85%

Q: What about the MIC ([5]; ATCC27736, Mueller-Hinton 2 medium, read-out: MIC, Rich medium) of the same compound?
A: > 200 µM

Q: What about the MIC ([5]; ATCC27736, glucose-MOPS minimal medium, read-out: MIC, Minimal medium) of the same compound?
A: > 200 µM

Q: And the IC50 [6]?
A: 37 ± 6.28 µM

Q: And the Emax [6, 10]?
A: 58%

Q: And the “sensitivity of the cell line to the compound, in words” value ([7]; CT26)?
A: sensitive

Q: And the IC50 ([7]; CT26, Alamar Blue, 72-hour treatment (Table 6))?
A: 3.38 ± 0.09 µM

Q: What about the Emax ([7]; Mus musculus, CT26, Alamar Blue, 72-hour treatment) of the same compound?
A: 81 to 92%

Q: And the IC50 ([8]; 72-hour treatment (Table 6))?
A: > 100 µM

Q: And the “cytotoxicity at the maximum dose, in words” value ([8]; ES-2, maximum dose)?
A: unaffected

Q: What about the IC50 ([8]; Homo sapiens, 72 hours) of the same compound?
A: > 100 µM

Q: And the Emax [9]?
A: 38 to 45%

Reference: patent US20250282802A1, “P[…] AND METHODS” (priority 2020, published 2025)
